Data from patent publication US20070219180A1, “Muscle Relaxtion Accelerator and Therapeutic Agent for Muscular Tissue Diseases Such as Muscle Relaxation Failure” (priority 2004, published 2007).

Assays:
male Wistar rats [1] = test: Experiment 2: effect of the compound on blood pressure in rats under calcium chloride and norepinephrine infusion; assay type: in vivo, rat
Experimental: (§1) Eight-week old male Wistar rats weighing 310-330 g were used in this experiment. The rats were anesthetized with 1,000 mg/kg of urethane and 80 mg/kg of α-chloralose by subperitoneal injection, and natural respiration was maintained. In this experiment, 100 mg of the compound was dissolved in 1 ml of dimethylsulfoxide (DMSO) and the resulting DMSO solution of the compound was stored at 4° C. Norepinephrine solution was prepared by dissolving 1 mg of norepinephrine in 41 μl of distilled water.
Similarly to Experiment 1, this experiment was performed at 20 to 25° C. Furthermore, similarly to Experiment 1, continuous infusion catheters of calcium chloride solution or norepinephrine solution containing calcium chloride were inserted into the right external jugular veins of the rats, and microchip catheters (SPC-320, Millar) were inserted into the aorta via the right common arteries.
A 1-lead electrocardiogram and the systolic pressure and diastolic pressure were recorded on a personal computer via an A/D converter. In the preparation step, blood pressure, pulse, and electrocardiogram of the rats were monitored for 15 minutes and allowed to stabilize, and then 5% dextrose solution containing calcium chloride (at a concentration based on the weight of the rat) was infused into the right external jugular vein for 25 minutes at 16.6 μl/min (9.0 mg/kg/min of calcium chloride).
Secondly, norepinephrine solution containing calcium chloride without changes in the dosage regimen was immediately injected at a rate of 40 μg/kg/min (in the form of a norepinephrine solution containing calcium chloride). Five minutes after commencement of injection (intravenous injection) of norepinephrine, continuous injection of calcium chloride and norepinephrine in the form of a norepinephrine solution containing calcium chloride was started, and 0.2 ml of 1% DMSO solution as a solvent control was administered over 30 seconds to the first rat (weight: 310 g) via the right femoral vein; this rat was defined as Control 3. After the solvent control was injected, 1% DMSO solution as a solvent control was additionally administered to Control 3 at 10 μl/min from commencement of solvent control injection to 15 minutes after the start of administration. Similarly to Control 3, 5 minutes after commencement of injection (intravenous injection) of norepinephrine in the form of a norepinephrine solution containing the calcium chloride, continuous injection of the calcium chloride and norepinephrine in the form of a norepinephrine solution containing calcium chloride was started, and 0.2 ml of 1% DMSO solution containing 0.3 mg/kg of the compound was administered over 30 seconds to a second rat (weight: 330 g; referred to as Test drug 3), and 1% DMSO solution containing 0.02 mg/kg of the test drug was then administered for 14 minutes at a rate of 0.02 mg/kg/min. Systolic pressure (mmHg) and diastolic pressure (mmHg) of each rat were measured at 20 heart beats every 2 minutes for 14 minutes after commencement of intravenous injection of the test drug. Mean blood pressure was calculated from the measured systolic pressure (mmHg) and diastolic pressure (mmHg) according to the following formula: mean blood pressure=[…].

male Wistar rats [2] = test: Experiment 3: left ventricular diastolic function by tissue Doppler imaging; assay type: in vivo, rat; details: 0.3 mg/kg i.v. over 30 s then 0.02 mg/kg/min for 20 min
Experimental: as §1, with “In this experiment on the invention, two 9-week” for “Eight-week”, “310 and 320” for “310-330”, “used.” for “used in this experiment.”, “solution” for “solution of the compound”
Similarly to Test drug 1, this study was performed at room temperature of 20 to 25° C., and also similarly to Test drug 1, continuous infusion catheters of calcium chloride solution or norepinephrine solution containing calcium chloride were inserted into the right external jugular vein and microchip catheters (SPC-320, Millar) were inserted into the aorta via the right common arteries.
A 1-lead electrocardiogram was recorded, and blood pressure, pulse, and electrocardiogram of the rats were monitored for 15 minutes and allowed to stabilize. In the preparation step, calcium chloride dissolved in 5% dextrose solution was infused into the right external jugular vein for 25 minutes at 16.6 μl/min (9.0 mg/kg/min of calcium chloride).
Secondly, immediate injection (intravenous injection) of a solution containing calcium chloride and norepinephrine without changes in dosage was started via the right external jugular vein at a rate of 40 μg/kg/min. After the start of administration, calcium chloride and norepinephrine were continuously injected in the form of a norepinephrine solution containing calcium chloride. Furthermore, with continuous injection of calcium chloride and norepinephrine (in the form of a norepinephrine solution containing calcium chloride), 0.2 ml of 1% DSMO was administered alone over 30 seconds to the first rat (weight: 310 g) as a control via the right femoral vein, 5 minutes after commencement of intravenous injection of calcium chloride and norepinephrine (in the form of a norepinephrine solution containing calcium chloride); this rat was defined as Control 4. Similarly to Control 4, with continuous injection of calcium chloride and norepinephrine (in the form of a norepinephrine solution containing calcium chloride) 0.2 ml of 1% DSMO solution containing 0.3 mg/kg of the test drug in the invention was administered over 30 seconds to a second rat (weight: 320 g; Test drug 3) via its right femoral vein, followed by administration for 20 minutes at 0.02 mg/kg/min, 5 minutes after intravenous injection of calcium chloride and norepinephrine (in the form of a norepinephrine solution containing calcium chloride). The left ventricular diastolic function of each rat was examined using tissue Doppler ultrasonography. Ultrasonic diagnostic equipment (Toshiba Powervision SSA-380APSK-70LT, Toshiba Corporation) was used and the rats were examined using ultrasound at 10 MHz. Firstly, the precordial region of each rat was shaved, and an ECHO probe was placed on the cardiac apex. The long axis of the left ventricle of the cardiac apex was imaged, a sample volume for pulsed-wave Doppler was established at the base of the posterior mitral leaflet, and the velocity of the left ventricular posterior wall motion [Ea wave (m/sec)] was measured at diastole as the left ventricular diastolic function. In this experiment, the left ventricular diastolic function is defined as the ratio of the velocity of the left ventricular wall motion at diastole before intravenous injection of norepinephrine (before administration; i.e. a normal left ventricular wall) determined using tissue Doppler imaging, or the ratio of the velocity of the left ventricular wall motion at diastole after intravenous injection of norepinephrine (after administration).

## COc1ccc2c(c1)CN(C(=O)CCN1CCC(Cc3ccccc3)CC1)CCS2 [the compound, 4-[3-(4-benzylpiperidine-1-yl)propionyl]-7-methoxy-2,3,4,5-tetrahydro-1,4-benzothiazepine]
Male Wistar rats [1]; Test drug 3: 0.3 mg/kg i.v. over 30 s then 0.02 mg/kg/min for 14 min, 0 minutes (just before the start of test drug administration)
  Mean blood pressure: 136 mmHg
Male Wistar rats [1]; Test drug 3: 0.3 mg/kg i.v. over 30 s then 0.02 mg/kg/min for 14 min, 5 minutes before test drug (just before the start of norepinephrine), baseline
  Mean blood pressure: 125 mmHg
Male Wistar rats [1]; Test drug 3: 0.3 mg/kg i.v. over 30 s then 0.02 mg/kg/min for 14 min, 30 minutes before test drug (5 minutes before the start of CaCl2), baseline
  Mean blood pressure: 122 mmHg
Male Wistar rats [1]; Test drug 3: 0.3 mg/kg i.v. over 30 s then 0.02 mg/kg/min, CaCl2 + norepinephrine infusion, 2 minutes after the start of test drug administration
  Mean blood pressure: 149 mmHg
Male Wistar rats [1]; Test drug 3: 0.3 mg/kg i.v. over 30 s then 0.02 mg/kg/min, CaCl2 + norepinephrine infusion, 4 minutes after the start of test drug administration
  Mean blood pressure: 162 mmHg
Male Wistar rats [1]; Test drug 3: 0.3 mg/kg i.v. over 30 s then 0.02 mg/kg/min, CaCl2 + norepinephrine infusion, 6 minutes after the start of test drug administration
  Mean blood pressure: 141 mmHg
Male Wistar rats [1]; Test drug 3: 0.3 mg/kg i.v. over 30 s then 0.02 mg/kg/min, CaCl2 + norepinephrine infusion, 8 minutes after the start of test drug administration
  Mean blood pressure: 139 mmHg
Male Wistar rats [1]; Test drug 3: 0.3 mg/kg i.v. over 30 s then 0.02 mg/kg/min, CaCl2 + norepinephrine infusion, 10 minutes after the start of test drug administration
  Mean blood pressure: 135 mmHg
Male Wistar rats [1]; Test drug 3: 0.3 mg/kg i.v. over 30 s then 0.02 mg/kg/min, CaCl2 + norepinephrine infusion, 12 minutes after the start of test drug administration
  Mean blood pressure: 136 mmHg
Male Wistar rats [1]; Test drug 3: 0.3 mg/kg i.v. over 30 s then 0.02 mg/kg/min, CaCl2 + norepinephrine infusion, 14 minutes after the start of test drug administration
  Mean blood pressure: 134 mmHg
Male Wistar rats [2]; 0 minutes (just before the start of intravenous injection of the test drug)
  Ratio of the velocity of the left ventricular wall motion at diastole: 1.00
Male Wistar rats [2]; CaCl2 + norepinephrine infusion, 5 minutes after the start of test drug
  Ratio of the velocity of the left ventricular wall motion at diastole: 1.02
Male Wistar rats [2]; CaCl2 + norepinephrine infusion, 10 minutes after the start of test drug
  Ratio of the velocity of the left ventricular wall motion at diastole: 1.04
Male Wistar rats [2]; CaCl2 + norepinephrine infusion, 15 minutes after the start of test drug
  Ratio of the velocity of the left ventricular wall motion at diastole: 1.00
Male Wistar rats [2]; CaCl2 + norepinephrine infusion, 20 minutes after the start of test drug
  Ratio of the velocity of the left ventricular wall motion at diastole: 1.00
Male Wistar rats [2]; CaCl2 + norepinephrine infusion, 25 minutes after the start of test drug
  Ratio of the velocity of the left ventricular wall motion at diastole: 0.94
Male Wistar rats [2]; CaCl2 + norepinephrine infusion, 30 minutes after the start of test drug
  Ratio of the velocity of the left ventricular wall motion at diastole: 0.95
Male Wistar rats [2]; Ea wave relative to before norepinephrine, 5 minutes before test drug (just before the start of norepinephrine), baseline
  Ratio of the velocity of the left ventricular wall motion at diastole: 1.00
